Type in all cases: biochemical
Conditions in all cases: for inhibition at 0.1 µM: compound at 100 nM, [ATP] = Km

In one assay the target is T1, EGFR (ErbB1) T790M L858R (Homo sapiens, UniProt P00533, L858R/T790M).
T1 construct: purchased Invitrogen
Put plainly: Z'-LYTE kinase inhibition assay (Invitrogen), EGFR L858R/T790M. On the procedure: (§1) Inhibitory activities of compounds against BTK, EGFR and EGFR mutants (EGFR L858R/T790M) were measured by Invitrogen using Z′-LYTE® Method as briefly described in the following.
(§2) Test Compounds are screened in 1% DMSO (final) in the well. For 10 point titrations, 3-fold serial dilutions are conducted from the starting concentration. All ATP Solutions are diluted to a 4× working concentration in Kinase Buffer (50 mM HEPES pH 7.5, 0.01% BRIJ-35, 10 mM MgCl2, 1 mM EGTA). Peptide/Kinase Mixtures are diluted to a 2× working concentration in the appropriate Kinase Buffers as described below.
(iv) Peptide/Kinase Mixtures for measurement of EGFR (ErbB1) T790M L858R:
The 2×EGFR (ErbB1) T790M L858R/Tyr 04 mixture is prepared in 50 mM HEPES pH 6.5, 0.01% BRIJ-35, 10 mM MgCl2, 1 mM EGTA, 0.02% NaN3. The final 10 μL Kinase Reaction consists of 0.38-4.22 ng EGFR (ErbB1) T790M L858R and 2 μM Tyr 04 in 50 mM HEPES pH 7.0, 0.01% BRIJ-35, 10 mM MgCl2, 1 mM EGTA, 0.01% NaN3. After the 1 hour Kinase Reaction incubation, 5 μL of a 1:64 dilution of Development Reagent B is added.
(§3) Reaction starts by 30-second shaking of mixture consisting of 2.5 μL 4× test compound, 5 μL 2× kinase reaction mixture and 2.5 μL 4×ATP Solution on Bar-coded Corning, low volume NBS, black 384-well plate (Corning Cat. #3676). Then the mixture is incubated for 60-minute at room temperature for the kinase reaction, followed by addition of 5 μL of a 1:1024 dilution of development reagent A and 30-second plate shake. The mixture is then incubated for another 60-minute at room temperature for development reaction. Finally fluorescence is read by plate reader. […] The scale utilized in Tables 2 and 3 is as follows: ++ more than 50% inhibition and + less than 50% inhibition.
(§4) To determine IC50 of a compound against EGFR or EGFR mutants, a series of concentrations of the compound were tested for the inhibition. IC50 was calculated by plotting the concentration of compound vs the percentage of inhibition in treated wells using GraphPad Prism 5. […] The scale utilized in Table 4 is as follows: ++ less than 100 nM and + greater than 100 nM.

The target in a further assay is T2, EGFR (ErbB1) (Homo sapiens, UniProt P00533).
T2 construct: purchased Invitrogen
T2 sequence (P00533 25-1210): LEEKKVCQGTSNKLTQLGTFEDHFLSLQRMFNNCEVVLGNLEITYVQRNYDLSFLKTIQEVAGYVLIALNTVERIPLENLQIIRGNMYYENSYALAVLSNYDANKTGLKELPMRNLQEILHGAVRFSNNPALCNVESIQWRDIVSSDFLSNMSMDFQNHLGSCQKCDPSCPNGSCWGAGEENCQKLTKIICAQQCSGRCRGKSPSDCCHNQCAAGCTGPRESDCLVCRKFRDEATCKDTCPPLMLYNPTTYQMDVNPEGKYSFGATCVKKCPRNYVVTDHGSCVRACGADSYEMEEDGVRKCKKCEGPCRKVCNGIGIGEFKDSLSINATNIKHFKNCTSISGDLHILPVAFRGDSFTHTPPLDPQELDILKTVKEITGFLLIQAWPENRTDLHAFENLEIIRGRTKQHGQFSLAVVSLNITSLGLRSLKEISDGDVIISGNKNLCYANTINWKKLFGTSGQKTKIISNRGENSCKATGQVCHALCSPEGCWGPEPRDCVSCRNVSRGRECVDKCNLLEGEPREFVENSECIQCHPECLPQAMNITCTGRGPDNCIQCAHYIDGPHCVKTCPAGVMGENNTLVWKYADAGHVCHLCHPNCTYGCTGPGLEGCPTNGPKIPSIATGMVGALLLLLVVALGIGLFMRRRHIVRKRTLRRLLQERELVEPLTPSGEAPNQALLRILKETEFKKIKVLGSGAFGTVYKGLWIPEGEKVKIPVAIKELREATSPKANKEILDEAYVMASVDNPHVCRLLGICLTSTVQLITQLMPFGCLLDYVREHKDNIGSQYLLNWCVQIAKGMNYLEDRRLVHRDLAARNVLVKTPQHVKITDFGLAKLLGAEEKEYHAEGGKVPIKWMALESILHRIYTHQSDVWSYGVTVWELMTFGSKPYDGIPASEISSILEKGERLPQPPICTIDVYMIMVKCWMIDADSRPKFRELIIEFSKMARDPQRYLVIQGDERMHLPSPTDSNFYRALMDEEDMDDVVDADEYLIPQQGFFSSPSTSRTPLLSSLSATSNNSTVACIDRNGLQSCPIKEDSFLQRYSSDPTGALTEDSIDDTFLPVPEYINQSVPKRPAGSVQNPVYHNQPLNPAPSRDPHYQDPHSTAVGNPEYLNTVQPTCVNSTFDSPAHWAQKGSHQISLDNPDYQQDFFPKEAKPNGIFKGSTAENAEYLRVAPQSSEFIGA
Put plainly: Z'-LYTE kinase inhibition assay (Invitrogen), EGFR. The method, then:
as §1, §2
(i) Peptide/Kinase Mixtures for measurement of EGFR (ErbB1):
The 2×EGFR (ErbB1)/Tyr 04 mixture is prepared in 50 mM HEPES pH 7.5, 0.01% BRIJ-35, 10 mM MgCl2, 4 mM MnCl2, 1 mM EGTA, 2 mMDTT. The final 10 μL Kinase Reaction consists of 1.1-5.25 ng EGFR (ErbB1) and 2 μM Tyr 04 in 50 mM HEPES pH 7.5, 0.01% BRIJ-35, 10 mM MgCl2, 2 mM MnCl2, 1 mM EGTA, 1 mM DTT. After the 1 hour Kinase Reaction incubation, 5 μL of a 1:64 dilution of DevelopmentReagent B is added.
as §3, §4

The target of the next assay is T3, BTK (Homo sapiens, UniProt Q06187).
T3 construct: purchased Invitrogen
T3 sequence (Q06187 whole entry): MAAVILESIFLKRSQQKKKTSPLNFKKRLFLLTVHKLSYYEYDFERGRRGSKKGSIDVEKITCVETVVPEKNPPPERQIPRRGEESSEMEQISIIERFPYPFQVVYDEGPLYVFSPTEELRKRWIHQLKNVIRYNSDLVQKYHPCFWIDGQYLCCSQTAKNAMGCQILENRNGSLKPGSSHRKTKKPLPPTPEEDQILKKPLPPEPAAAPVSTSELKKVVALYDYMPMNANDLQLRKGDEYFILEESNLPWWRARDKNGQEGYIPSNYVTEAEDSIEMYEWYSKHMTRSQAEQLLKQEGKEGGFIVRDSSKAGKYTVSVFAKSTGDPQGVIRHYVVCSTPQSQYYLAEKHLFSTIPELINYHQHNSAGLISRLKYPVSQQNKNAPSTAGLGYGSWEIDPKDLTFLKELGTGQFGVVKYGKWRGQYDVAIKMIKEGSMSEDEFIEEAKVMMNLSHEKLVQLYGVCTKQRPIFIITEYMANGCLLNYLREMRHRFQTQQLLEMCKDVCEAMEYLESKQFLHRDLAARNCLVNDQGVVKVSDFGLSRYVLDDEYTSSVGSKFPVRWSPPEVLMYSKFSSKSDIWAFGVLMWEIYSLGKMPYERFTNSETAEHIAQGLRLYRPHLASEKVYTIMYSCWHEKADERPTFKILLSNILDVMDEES
The assay is described as follows: Z'-LYTE kinase inhibition assay (Invitrogen), BTK. The method, then: as §1, §2
(v) Peptide/Kinase Mixtures for measurement of BTK:
The 2×BTK/Tyr 01 mixture is prepared in 50 mM HEPES pH 7.5, 0.01% BRIJ-35, 10 mM MgCl2, 1 mM EGTA. The final 10 μL Kinase Reaction consists of 1.04-10.4 ng BTK and 2 μM Tyr 01 in 50 mM HEPES pH 7.5, 0.01% BRIJ-35, 10 mM MgCl2, 1 mM EGTA. After the 1 hour Kinase Reaction incubation, 5 μL of a 1:256 dilution of Development Reagent B is added.
as §3, §4

Some results are limits rather than exact numbers.

The term IC50 denotes the concentration that gives 50% inhibition. Lower therefore signals greater potency in that assay. For orientation: inhibition means how much of the control response was suppressed. Read a low inhibition as a response near the control.

T1 sequence (P00533 25-1210 T790M/L858R): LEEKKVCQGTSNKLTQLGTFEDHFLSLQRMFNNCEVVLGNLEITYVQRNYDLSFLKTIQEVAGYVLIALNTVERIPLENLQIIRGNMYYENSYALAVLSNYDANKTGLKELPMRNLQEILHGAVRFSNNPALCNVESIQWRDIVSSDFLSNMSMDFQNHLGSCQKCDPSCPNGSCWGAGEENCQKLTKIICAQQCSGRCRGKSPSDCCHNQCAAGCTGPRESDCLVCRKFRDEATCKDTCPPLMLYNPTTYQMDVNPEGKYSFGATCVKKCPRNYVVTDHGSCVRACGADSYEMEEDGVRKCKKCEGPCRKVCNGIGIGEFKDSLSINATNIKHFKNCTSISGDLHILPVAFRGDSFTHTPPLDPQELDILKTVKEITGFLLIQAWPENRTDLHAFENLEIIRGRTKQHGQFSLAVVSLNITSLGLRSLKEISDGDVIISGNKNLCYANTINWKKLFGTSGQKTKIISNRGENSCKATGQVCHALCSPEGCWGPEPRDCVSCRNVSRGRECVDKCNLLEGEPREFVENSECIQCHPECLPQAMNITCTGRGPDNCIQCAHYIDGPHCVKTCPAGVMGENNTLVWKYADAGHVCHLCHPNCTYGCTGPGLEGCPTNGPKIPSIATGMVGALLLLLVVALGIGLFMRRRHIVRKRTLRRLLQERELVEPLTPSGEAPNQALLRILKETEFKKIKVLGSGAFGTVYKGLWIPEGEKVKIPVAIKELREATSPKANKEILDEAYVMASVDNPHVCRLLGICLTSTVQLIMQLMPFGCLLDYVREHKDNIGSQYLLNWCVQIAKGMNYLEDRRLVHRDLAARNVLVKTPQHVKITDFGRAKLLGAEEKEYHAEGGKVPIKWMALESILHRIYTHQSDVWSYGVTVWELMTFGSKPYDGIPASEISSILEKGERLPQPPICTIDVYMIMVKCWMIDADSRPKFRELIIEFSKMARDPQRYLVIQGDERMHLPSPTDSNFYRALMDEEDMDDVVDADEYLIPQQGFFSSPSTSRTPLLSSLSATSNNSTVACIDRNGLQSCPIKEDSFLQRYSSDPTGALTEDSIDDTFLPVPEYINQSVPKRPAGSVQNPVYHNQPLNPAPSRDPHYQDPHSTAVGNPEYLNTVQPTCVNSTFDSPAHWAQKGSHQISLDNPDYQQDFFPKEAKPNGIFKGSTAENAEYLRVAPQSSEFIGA

As to `C=CC(=O)Nc1cccc(-n2cnc3cnc(Nc4ccc(N5CCN(C)CC5)cc4)nc32)c1` [Example A002, N-(3-(2-((4-(4-methylpiperazin-1-yl)phenyl)amino)-9H-purin-9-yl)phenyl)acrylamide], the values for the IC50 against EGFR (ErbB1) T790M L858R, at EGFR (ErbB1) and at BTK were greater than 100 nM, greater than 100 nM and less than 100 nM, respectively. The same compound registered an inhibition at 0.1 µM on BTK greater than 50%.
On BTK, `C=CC(=O)Nc1cccc(-n2cnc3cnc(Nc4ccc(N5CCN(CCO)CC5)cc4F)nc32)c1` [Example A003, N-(3-(2-((2-fluoro-4-(4-(2-hydroxyethyl)piperazin-1-yl)phenyl)amino)-9H-purin-9-yl)phenyl)acrylamide] registered an inhibition at 0.1 µM of less than 50%.
The same measure, in the same setting: next, `C=CC(=O)N1CCC(n2cnc3cnc(Nc4ccc(N5CCN(C)CC5)c(F)c4)nc32)C1` (stereo not drawn) [Example A004, 1-(3-(2-((3-Fluoro-4-(4-methylpiperazin-1-yl)phenyl)amino)-9H-purin-9-yl)pyrrolidin-1-yl)prop-2-en-1-one]: greater than 50%; `C=CC(=O)N1CCC(n2cnc3cnc(Nc4ccc(N5CCN(C)CC5)cc4)nc32)C1` (stereo not drawn) [Example A005, 1-(3-(2-((4-(4-methylpiperazin-1-yl)phenyl)amino)-9H-purin-9-yl)pyrrolidin-1-yl)prop-2-en-1-one]: greater than 50%.
The same measure, in the same setting: next, `C=CC(=O)N1CCC(n2cnc3cnc(Nc4ccc(N5CCN(CCO)CC5)cc4)nc32)C1` (stereo not drawn) [Example A006, 1-(3-(2-((4-(4-(2-hydroxyethyl)piperazin-1-yl)phenyl)amino)-9H-purin-9-yl)pyrrolidin-1-yl)prop-2-en-1-one]: greater than 50%.
The same measure, in the same setting: in the case of `C=CC(=O)N1CCC(n2cnc3cnc(Nc4ccc(N5CCN(CCO)CC5)c(F)c4)nc32)C1` (stereo not drawn) [Example A007, 1-(3-(2-((3-fluoro-4-(4-(2-hydroxyethyl)piperazin-1-yl)phenyl)amino)-9H-purin-9-yl)pyrrolidin-1-yl)prop-2-en-1-one] it was greater than 50%; in that of `C=CC(=O)N1CCC(n2cnc3cnc(Nc4ccc(N5CCN(CCO)CC5)cc4F)nc32)C1` (stereo not drawn) [Example A008, 1-(3-(2-((2-fluoro-4-(4-(2-hydroxyethyl)piperazin-1-yl)phenyl)amino)-9H-purin-9-yl)pyrrolidin-1-yl)prop-2-en-1-one], less than 50%.
As for `C=CC(=O)N1CCCC(n2cnc3cnc(Nc4ccc(N5CCN(C)CC5)c(F)c4)nc32)C1` (stereo not drawn) [Example A009, 1-(3-(2-((3-fluoro-4-(4-methylpiperazin-1-yl)phenyl)amino)-9H-purin-9-yl)piperidin-1 yl)prop-2-en-1-one], the IC50 against EGFR (ErbB1) T790M L858R was greater than 100 nM; against EGFR (ErbB1) it was greater than 100 nM; against BTK it was less than 100 nM. At BTK, the inhibition at 0.1 µM was greater than 50%.
Turning to `C=CC(=O)Nc1cccc(-n2cnc3cnc(Nc4ccc(N5CCN(C)CC5)c(F)c4)nc32)c1` [Example A010, N-(3-(2-((3-fluoro-4-(4-methylpiperazin-1-yl)phenyl)amino)-9H-purin-9-yl)phenyl)acrylamide], the IC50 is greater than 100 nM on EGFR (ErbB1) T790M L858R, greater than 100 nM at EGFR (ErbB1) and less than 100 nM against BTK. The same compound registered an inhibition at 0.1 µM at BTK greater than 50%.
For the compound `C=CC(=O)N1CCC(n2cnc3cnc(Nc4ccc(N5CCN(C)CC5)c(F)c4F)nc32)C1` (stereo not drawn) [Example A011, 1-(3-(2-((2,3-difluoro-4-(4-methylpiperazin-1-yl)phenyl)amino)-9H-purin-9-yl)pyrrolidin-1-yl)prop-2-en-1-one], the inhibition at 0.1 µM against EGFR (ErbB1) T790M L858R, on EGFR (ErbB1) and on BTK was less than 50% in each case.
For the compound `C=CC(=O)N1CCCC(n2cnc3cnc(Nc4ccc(N5CCN(CCO)CC5)c(F)c4)nc32)C1` (stereo not drawn) [Example A012], the inhibition at 0.1 µM at EGFR (ErbB1) T790M L858R was less than 50%; against EGFR (ErbB1), less than 50%; on BTK, greater than 50%.
In the case of `C=CC(=O)N1CCCC(n2cnc3cnc(Nc4ccc(N5CCN(CCO)CC5)cc4)nc32)C1` (stereo not drawn) [Example A013, 1-(3-(2-((4-(4-(2-hydroxyethyl)piperazin-1-yl)phenyl)amino)-9H-purin-9-yl)piperidin-1-yl)prop-2-en-1-one], the inhibition at 0.1 µM was less than 50% on EGFR (ErbB1) T790M L858R, less than 50% at EGFR (ErbB1) and greater than 50% against BTK.
Turning to `C=CC(=O)Nc1cccc(-n2cnc3cnc(Nc4ccc(N5CCN(CCO)CC5)c(F)c4F)nc32)c1` [Example A014, N-(3-(2-((2,3-difluoro-4-(4-(2-hydroxyethyl)piperazin-1-yl)phenyl)amino)-9H-purin-9-yl)phenyl)acrylamide], the inhibition at 0.1 µM against EGFR (ErbB1) T790M L858R, against EGFR (ErbB1) and at BTK was less than 50% throughout.
For the compound `C=CC(=O)Nc1cccc(-n2cnc3cnc(Nc4ccc(N5CCN(CCO)CC5)cc4)nc32)c1` [Example A015, N-(3-(2-((4-(4-(2-hydroxyethyl)piperazin-1-yl)phenyl)amino)-9H-purin-9-yl)phenyl)acrylamide], the inhibition at 0.1 µM on EGFR (ErbB1) T790M L858R was less than 50%; against EGFR (ErbB1), less than 50%; at BTK it was greater than 50%.
On to `C=CC(=O)N1CCCC(n2cnc3cnc(Nc4ccc(N5CCN(CCO)CC5)cc4F)nc32)C1` (stereo not drawn) [Example A016, 1-(3-(2-((2-fluoro-4-(4-(2-hydroxyethyl)piperazin-1-yl)phenyl)amino)-9H-purin-9-yl)piperidin-1-yl)prop-2-en-1-one], for which the inhibition at 0.1 µM against EGFR (ErbB1) T790M L858R, against EGFR (ErbB1) and against BTK was less than 50% each time.
For `C=CC(=O)N1CCC(n2cnc3cnc(Nc4ccc(N5CCN(C)CC5)cc4F)nc32)C1` (stereo not drawn) [Example A017, 1-(3-(2-((2-fluoro-4-(4-methylpiperazin-1-yl)phenyl)amino)-9H-purin-9-yl)pyrrolidin-1-yl)prop-2-en-1-one], the inhibition at 0.1 µM on EGFR (ErbB1) T790M L858R, against EGFR (ErbB1) and at BTK was less than 50% each time.
`C=CC(=O)N1CCCC(n2cnc3cnc(Nc4ccc(N5CCN(C)CC5)cc4F)nc32)C1` (stereo not drawn) [Example A018, 1-(3-(2-((2-fluoro-4-(4-methylpiperazin-1-yl)phenyl)amino)-9H-purin-9-yl)piperidin-1-yl)prop-2-en-1-one]: the inhibition at 0.1 µM against EGFR (ErbB1) T790M L858R, at EGFR (ErbB1) and against BTK was less than 50% throughout.
As to `C=CC(=O)Nc1cccc(-n2cnc3cnc(Nc4ccc(N5CCN(C)CC5)c(F)c4F)nc32)c1` [Example A019, N-(3-(2-((2,3-difluoro-4-(4-methylpiperazin-1-yl)phenyl)amino)-9H-purin-9-yl)phenyl)acrylamide], the inhibition at 0.1 µM against EGFR (ErbB1) T790M L858R, against EGFR (ErbB1) and on BTK was less than 50% in each case.
For the compound `C=CC(=O)Nc1cccc(-n2cnc3cnc(Nc4ccc(N5CCN(CCO)CC5)c(F)c4)nc32)c1` [Example A020], the inhibition at 0.1 µM against EGFR (ErbB1) T790M L858R was greater than 50%; against EGFR (ErbB1), less than 50%; against BTK, greater than 50%.
`C=CC(=O)Nc1cccc(-n2cnc3cnc(Nc4ccc(N5CCN(C)CC5)cc4F)nc32)c1` [Example A021, N-(3-(2-((2-fluoro-4-(4-methylpiperazin-1-yl)phenyl)amino)-9H-purin-9-yl)phenyl)acrylamide]: the inhibition at 0.1 µM against EGFR (ErbB1) T790M L858R, against EGFR (ErbB1) and on BTK was less than 50% each time.

These data come from patent US10947201B2, “Certain chemical entities, compositions, and methods” (NEUPHARMA, INC., priority 2015, dated 2021).
